Like-named read-outs stand apart in the source and are kept apart here.
Experiments:
[1] = system: MRSA; assay: Antibacterial MIC, double-dilution method; format: cell-based; settings: Staphylococcus aureus, strain C, Gram-positive, read-out: MIC
Procedure: (§1) MIC values were determined against a variety of Gram-positive (strains A-D) and Gram-negative (E-J) bacterial and mycobacterial (K) strains using the double-dilution method, as previously published. Preliminary screening was performed using 500 μM of each compound.

[2] = system: E. cloacae ATCC 13047; assay: Antibacterial MIC, double-dilution method; format: cell-based; settings: Enterobacter cloacae, ATCC13047
Procedure: as §1

[3] = system: VRE; assay: Antibacterial MIC, double-dilution method; format: cell-based; settings: Enterococcus, strain D, Gram-positive, read-out: MIC
Procedure: as §1

[4] = system: A. baumannii ATCC 19606; assay: Antibacterial MIC, double-dilution method; format: cell-based; settings: Acinetobacter baumannii, ATCC19606
Procedure: as §1

[5] = system: B. subtilis 168; assay: Antibacterial MIC, double-dilution method; format: cell-based; settings: Bacillus subtilis, strain A, Gram-positive
Procedure: as §1

[6] = system: P. aeruginosa ATCC 27853; assay: Antibacterial MIC, double-dilution method; format: cell-based; settings: Pseudomonas aeruginosa, ATCC27853
Procedure: as §1

[7] = system: E. coli MC1061; assay: Antibacterial MIC, double-dilution method; format: cell-based; settings: Escherichia coli, strain G, Gram-negative, read-out: MIC
Procedure: as §1

[8] = system: K. pneumoniae ATCC 27736; assay: Antibacterial MIC, double-dilution method; format: cell-based; settings: Klebsiella pneumoniae, ATCC27736
Procedure: as §1

[9] = system: L. monocytogenes ATCC 19115; assay: Antibacterial MIC, double-dilution method; format: cell-based; settings: Listeria monocytogenes, ATCC19115, strain B, Gram-positive, read-out: MIC
Procedure: as §1

[10] = system: S. enterica ATCC 14028; assay: Antibacterial MIC, double-dilution method; format: cell-based; settings: Salmonella enterica, ATCC14028
Procedure: as §1

[11] = system: M. smegmatis MC2-155; assay: Antibacterial MIC, double-dilution method; format: cell-based; settings: mycobacterial
Procedure: as §1

[12] = system: C. albicans ATCC 90819; assay: Antifungal MIC, CLSI M27-A3 microbroth dilution; format: cell-based, Candida albicans; settings: C. albicans ATCC 90819, resistant to FLC, ITC, and VOR
Procedure: (§2) In vitro MIC testing was performed according to the CLSI M27-A3 standard microbroth dilution methodology for the susceptibility testing of yeasts with minor modifications.

[13] = system: C. albicans ATCC 1003; assay: Antifungal MIC, CLSI M27-A3 microbroth dilution; format: cell-based, Candida albicans
Procedure: as §2

[14] = system: C. albicans ATCC 64124; assay: Antifungal MIC, CLSI M27-A3 microbroth dilution; format: cell-based, Candida albicans; settings: C. albicans ATCC 64124, resistant to FLC, ITC, and VOR
Procedure: as §2

[15] = system: C. albicans ATCC 2876; assay: Antifungal MIC, CLSI M27-A3 microbroth dilution; format: cell-based, Candida albicans; settings: C. albicans ATCC 2876, susceptible to FLC, ITC, and VOR
Procedure: as §2

[16] = system: C. albicans ATCC 2310; assay: Antifungal MIC, CLSI M27-A3 microbroth dilution; format: cell-based, Candida albicans; settings: C. albicans ATCC 2310, susceptible to FLC, ITC, and VOR
Procedure: as §2

[17] = system: C. albicans ATCC 1237; assay: Antifungal MIC, CLSI M27-A3 microbroth dilution; format: cell-based, Candida albicans; settings: ITC, and VOR
Procedure: as §2

[18] = system: C. albicans ATCC 10231; assay: Antifungal MIC, CLSI M27-A3 microbroth dilution; format: cell-based, Candida albicans; settings: C. albicans ATCC 10231, resistant to FLC, ITC, and VOR
Procedure: as §2

[19] = strain F, Gram-negative, range 0.5 to 500 μM, read-out: MIC
[20] = strain E, Gram-negative, range 0.5 to 500 μM, read-out: MIC
[21] = strain I, Gram-negative, range 0.5 to 500 μM, read-out: MIC
[22] = strain H, Gram-negative, range 0.5 to 500 μM, read-out: MIC
[23] = strain J, Gram-negative, range 0.5 to 500 μM, read-out: MIC
[24] = Mycolicibacterium smegmatis, MC2155, strain K, converted from μM, read-out: MIC
[25] = Mycolicibacterium smegmatis, MC2155, strain K, range 0.5 to 500 μM, read-out: MIC
[26] = Candida albicans, ATCC90819, converted from μg/mL, read-out: MIC
[27] = Candida albicans, ATCC90819, read-out: MIC
[28] = Candida albicans, ATCC1003, C. albicans ATCC 1003, converted from μg/mL, read-out: MIC
[29] = Candida albicans, ATCC1003, read-out: MIC
[30] = Candida albicans, ATCC64124, converted from μg/mL, read-out: MIC
[31] = Candida albicans, ATCC64124, read-out: MIC
[32] = Candida albicans, ATCC2876, converted from μg/mL, read-out: MIC
[33] = Candida albicans, ATCC2876, read-out: MIC
[34] = Candida albicans, ATCC2310, converted from μg/mL, read-out: MIC
[35] = Candida albicans, ATCC2310, read-out: MIC
[36] = Candida albicans, ATCC1237, C. albicans ATCC 1237, resistant to FLC, converted from μg/mL, read-out: MIC
[37] = Candida albicans, ATCC1237, C. albicans ATCC 1237, resistant to FLC, read-out: MIC
[38] = Candida albicans, ATCC10231, converted from μg/mL, read-out: MIC
[39] = Candida albicans, ATCC10231, read-out: MIC
[40] = strain F, Gram-negative, converted from μM, read-out: MIC
[41] = strain E, Gram-negative, converted from μM, read-out: MIC
[42] = strain I, Gram-negative, converted from μM, read-out: MIC
[43] = strain H, Gram-negative, converted from μM, read-out: MIC

| SMILES | MIC [2, 19] [µM] | MIC ([3]; converted from μM) [µg/mL] | MIC ([3]; range 0.5 to 500 μM) [µM] | MIC [4, 20] [µM] | MIC [6, 21] [µM] | MIC ([7]; converted from μM) [µg/mL] | MIC ([7]; range 0.5 to 500 μM) [µM] | MIC [8, 22] [µM] | MIC ([9]; converted from μM) [µg/mL] | MIC ([9]; range 0.5 to 500 μM) [µM] | MIC [11, 24] [µg/mL] | MIC [12, 26] [µM] | MIC [12, 27] [µg/mL] | MIC [13, 28] [µM] | MIC [13, 29] [µg/mL] | MIC [14, 30] [µM] | MIC [14, 31] [µg/mL] | MIC [15, 32] [µM] | MIC [15, 33] [µg/mL] | MIC [16, 34] [µM] | also measured |
| --- | --- | --- | --- | --- | --- | --- | --- | --- | --- | --- | --- | --- | --- | --- | --- | --- | --- | --- | --- | --- | --- |
| Cl.Cl.N=C(N)N/N=C/c1ccc(-c2ccc(/C=N/NC(=N)N)cc2)cc1 [Compound 3A, (2E,2′E)-2,2′-([1,1′-Biphenyl]-4,4′-diylbis(methanylylidene))bis(hydrazine-1-carboximidamide) dihydrochloride] | > 500 | 0.8 | 2 | > 500 | > 500 | > 198 | > 500 | > 500 | 0.4 | 1 | > 198 | > 79.2 | > 31.3 | 19.7 | 7.8 | > 79.2 | > 31.3 | 19.7 | 7.8 | > 79.2 | MIC ([1]; converted from μM): 1.5 µg/mL; MIC ([1]; range 0.5 to 500 μM): 3.9 µM; MIC [2]: > 198 µg/mL; MIC [4]: > 198 µg/mL; MIC ([5]; converted from μM): > 198 µg/mL; MIC ([5]; range 0.5 to 500 μM): > 500 µM; MIC [6]: > 198 µg/mL; MIC [8]: > 198 µg/mL; MIC [10]: > 198 µg/mL; MIC [10, 23]: > 500 µM; MIC [11, 25]: > 500 µM; MIC [16, 35]: > 31.3 µg/mL; MIC [17, 36]: 39.5 µM; MIC [17, 37]: 15.6 µg/mL; MIC [18, 38]: 39.5 µM; MIC [18, 39]: 15.6 µg/mL |
| C/C(=N\NC(=N)N)c1cccc(/C(C)=N/NC(=N)N)c1.Cl.Cl [Compound 4H, (2E,2′E)-2,2′-(1,3-Phenylenebis(ethan-1-yl-1-ylidene))bis(hydrazine-1-carboximidamide) dihydrochloride] | > 500 | 43.4 | 125 | > 500 | 500 | > 173 | > 500 | > 500 | 86.8 | 250 | 5.4 | > 90.1 | > 31.3 | > 90.1 | > 31.3 | > 90.1 | > 31.3 | 22.5 | 7.8 | 90.1 | MIC ([1]; converted from μM): > 173 µg/mL; MIC ([1]; range 0.5 to 500 μM): > 500 µM; MIC [2, 40]: > 173 µg/mL; MIC [4, 41]: > 173 µg/mL; MIC ([5]; converted from μM): 86.8 µg/mL; MIC ([5]; range 0.5 to 500 μM): 250 µM; MIC [6, 42]: 173 µg/mL; MIC [8, 43]: > 173 µg/mL; MIC ([10]; strain J, Gram-negative, converted from μM, read-out: MIC): 21.7 to 86.8 µg/mL; MIC [10, 23]: 62.5 to 250 µM; MIC ([11]; Mycolicibacterium smegmatis, MC2155, strain K, range 0.5 to 500 μM): 15.6 to 31.3 µM; MIC ([11]; strain K, range 0.5 to 500 μM, dihydrochloride): (15.6) μM; MIC [16, 35]: 31.3 µg/mL; MIC [17, 36]: 90.1 µM; MIC [17, 37]: 31.3 µg/mL; MIC [18, 38]: > 90.1 µM; MIC [18, 39]: > 31.3 µg/mL |
| C[C@@H]1[C@H](O)[C@@H](C)/C=C/C=C/C=C/C=C/C=C/C=C/C=C/[C@H](O[C@@H]2O[C@H](C)[C@@H](O)[C@H](N)[C@@H]2O)C[C@@H]2O[C@](O)(C[C@@H](O)C[C@@H](O)[C@H](O)CC[C@@H](O)C[C@@H](O)CC(=O)O[C@H]1C)C[C@H](O)[C@H]2C(=O)O [AmB, amphotericin B, reference compound] |  |  |  |  |  |  |  |  |  |  |  |  |  |  |  |  |  |  |  |  | MIC [12]: 2.0 µg/mL; MIC ([12]; converted from μg/mL): (2.1) μM; MIC ([13]; C. albicans ATCC 1003, converted from μg/mL): (4.2) μM; MIC ([13]; C. albicans ATCC 1003, range 0.5 to […]): 3.9 µg/mL; MIC [14]: 2.0 to 3.9 µg/mL; MIC ([14]; converted from μg/mL): (2.1-4.2) μM; MIC [15]: 3.9 µg/mL; MIC ([15]; converted from μg/mL): (4.2) μM; MIC [16]: 3.9 µg/mL; MIC ([16]; converted from μg/mL): (4.2) μM; MIC ([17]; C. albicans ATCC 1237, resistant to FLC): 3.9 µg/mL; MIC ([17]; C. albicans ATCC 1237, resistant to FLC, converted from μg/mL): (4.2) μM; MIC [18]: 3.9 µg/mL; MIC ([18]; converted from μg/mL): (4.2) μM |
| C/C(=N\NC(=N)N)c1ccc(Oc2ccc(/C(C)=N/NC(=N)N)cc2)cc1.Cl.Cl [Compound 4E, (2E,2′E)-2,2′-((Oxybis(4,1-phenylene))bis(ethan-1-yl-1-ylidene))bis(hydrazine-1 carboximidamide), dihydrochloride] | 250 | 1.7 | 3.9 | 62.5 | 62.5 | 54.9 | 125 | 62.5 | 27.5 | 62.5 | 54.9 to 110 | 17.8 | 7.8 | 17.8 | 7.8 | 17.8 | 7.8 | 8.9 | 3.9 | 17.8 | MIC [2, 40]: 110 µg/mL; MIC [4, 41]: 27.5 µg/mL; MIC [6, 42]: 27.5 µg/mL; MIC [8, 43]: 27.5 µg/mL; MIC [11, 25]: 125 to 250 µM; MIC [16, 35]: 7.8 µg/mL; MIC [17, 36]: 17.8 µM; MIC [17, 37]: 7.8 µg/mL; MIC [18, 38]: 17.8 µM; MIC [18, 39]: 7.8 µg/mL |

Reference: patent US10173968B2, “Bishydrazone-based antifungal agents” (University of Kentucky Research Foundation, priority 2016, dated 2019)
